According to ChEMBL document CHEMBL1201862, “PubChem BioAssay data set” (2004):
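In this assay, cells in 96-well plates receive the compound at five concentrations for 48 hours. Endpoints are linearly interpolated between the surrounding concentrations. GI50 = concentration required for 50% inhibition of growth.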 Active and inactive are the calls of the source. Rule as the data show it: active = GI50 up to about 1.1 µM and inactive = higher.

What was measured:
Assay in all cases: growth of human tumour cells (NCI), 48 h
[1] = system: ACHN
[2] = system: BT-549
[3] = system: SNB-75
[4] = system: SF-295
[5] = system: RPMI-8226
[6] = system: OVCAR-3
[7] = system: SR
[8] = system: OVCAR-5
[9] = system: UACC-257
[10] = system: A498
[11] = system: SF-539
[12] = system: NCI-H23
[13] = system: HCC 2998
[14] = system: HCT-15
[15] = system: NCI-H460
[16] = system: HL-60
[17] = system: SK-MEL-2
[18] = system: K562
[19] = system: MDA-MB-231
[20] = system: OVCAR-8

| SMILES | GI50 [1] | GI50 [2] | GI50 [3] | GI50 [4] | GI50 [5] | GI50 [6] | GI50 [7] | GI50 [8] | GI50 [9] | GI50 [10] | GI50 [11] | GI50 [12] | GI50 [13] | GI50 [14] [µM] | GI50 [15] | GI50 [16] | GI50 [17] | GI50 [18] | GI50 [19] | GI50 [20] |
| --- | --- | --- | --- | --- | --- | --- | --- | --- | --- | --- | --- | --- | --- | --- | --- | --- | --- | --- | --- | --- |
| COc1cc2c(cc1-c1coc3cc(OCC=C(C)C)ccc3c1=O)OCO2 | 29.3 µM (inactive) | 16.8 µM (inactive) | 31 µM (inactive) | 33.6 µM (inactive) | 15.3 µM (inactive) | 61.2 µM (inactive) | 6.32 µM (inactive) | 55.6 µM (inactive) | 33.3 µM (inactive) | 33.4 µM (inactive) | 36.2 µM (inactive) | 24.4 µM (inactive) | 15.4 µM (inactive) | 9.77 | 19.1 µM (inactive) | 10 µM (inactive) | 48.1 µM (inactive) | 6.85 µM (inactive) | 18.5 µM (inactive) | – |
| N=C(N)SC1c2ccccc2-c2cc([N+](=O)[O-])ccc21 (stereo unspecified) | 6.53 µM (inactive) | 6.05 µM (inactive) | 2.02 µM (inactive) | 4.01 µM (inactive) | 4.2 µM (inactive) | 2.69 µM (inactive) | 3.86 µM (inactive) | 9.95 µM (inactive) | 7.45 µM (inactive) | 3.62 µM (inactive) | 3.96 µM (inactive) | 4.84 µM (inactive) | 2.59 µM (inactive) | 4.48 | 3.93 µM (inactive) | 2.61 µM (inactive) | 3.51 µM (inactive) | 3.89 µM (inactive) | 6.5 µM (inactive) | 8.99 µM (inactive) |
| O=C(Cc1ccc(Cl)cc1)Nc1ccc2oc(-c3ccccc3)nc2c1 | > 100 µM (inactive) | > 100 µM (inactive) | 24.4 µM (inactive) | > 100 µM (inactive) | > 100 µM (inactive) | > 100 µM (inactive) | > 100 µM (inactive) | > 100 µM (inactive) | > 100 µM (inactive) | > 100 µM (inactive) | 35.2 µM (inactive) | > 100 µM (inactive) | > 100 µM (inactive) | > 100 | > 100 µM (inactive) | > 100 µM (inactive) | 89.1 µM (inactive) | > 100 µM (inactive) | > 100 µM (inactive) | 32.7 µM (inactive) |
| CC/C(C)=C1\OC(=O)C(C)C(O)C(Cc2cccnc2)NC(=O)C(NC(=O)c2ncccc2O)C(C)OC1=O (stereo unspecified) | 6.7 µM (inactive) | > 100 µM (inactive) | 51.6 µM (inactive) | 44.4 µM (inactive) | 90.8 µM (inactive) | > 100 µM (inactive) | > 100 µM (inactive) | > 100 µM (inactive) | > 100 µM (inactive) | > 100 µM (inactive) | > 100 µM (inactive) | > 100 µM (inactive) | > 100 µM (inactive) | 49.5 | 63.1 µM (inactive) | 62.8 µM (inactive) | > 100 µM (inactive) | > 100 µM (inactive) | > 100 µM (inactive) | 63.8 µM (inactive) |
| O=[N+]([O-])c1ccc2c(Nc3ccccc3-c3ccccc3Nc3c4ccccc4nc4cc([N+](=O)[O-])ccc34)c3ccccc3nc2c1 | 3.17 µM (inactive) | 1.16 µM (inactive) | 4.19 µM (inactive) | 5.4 µM (inactive) | 1.69 µM (inactive) | 3.18 µM (inactive) | 1.69 µM (inactive) | 25.9 µM (inactive) | 8.05 µM (inactive) | 9.35 µM (inactive) | 4.59 µM (inactive) | 10.8 µM (inactive) | 3.98 µM (inactive) | 3.77 | 2.5 µM (inactive) | 2.68 µM (inactive) | 2.03 µM (inactive) | 1.57 µM (inactive) | 2.31 µM (inactive) | 3.93 µM (inactive) |
| CCOC(=O)c1c(C)n(-c2ccc(Cl)cc2)c2c1cc(O)c1[nH]c3c(c12)CCCC3 | 46.3 µM (inactive) | 52.7 µM (inactive) | 44 µM (inactive) | 52.8 µM (inactive) | 33.9 µM (inactive) | 54.2 µM (inactive) | 3.87 µM (inactive) | > 100 µM (inactive) | 47 µM (inactive) | 73.1 µM (inactive) | 42.5 µM (inactive) | 48.6 µM (inactive) | 60.7 µM (inactive) | > 100 | 47.5 µM (inactive) | 34.6 µM (inactive) | 29.6 µM (inactive) | 41.3 µM (inactive) | > 100 µM (inactive) | 55.6 µM (inactive) |
| c1ccc(-c2nc3ccccc3n3nnnc23)cc1 | > 100 µM (inactive) | > 100 µM (inactive) | – | – | > 100 µM (inactive) | > 100 µM (inactive) | > 100 µM (inactive) | > 100 µM (inactive) | > 100 µM (inactive) | > 100 µM (inactive) | > 100 µM (inactive) | > 100 µM (inactive) | > 100 µM (inactive) | > 100 | > 100 µM (inactive) | > 100 µM (inactive) | > 100 µM (inactive) | > 100 µM (inactive) | > 100 µM (inactive) | – |
